Measured values taken from US10767149B2, “Microfluidic device for three dimensional and compartmentalized coculture of neuronal and muscle cells, with functional force readout” (priority 2016, dated 2020).
Entries after “also recorded” stand apart in the source; their conditions may differ.

Legend:
Assay type in all cases: cell-based, mouse
[1] = system: motor neurons in neurospheres innervating C2C12-derived muscle bundle; assay: Glutamate stimulation of neurospheres in three-dimensional microfluidic neuron-muscle coculture
Procedure: . After reassembling an open-reservoir variant of the microfluidic device onto the muscle strip, the medium contained in all channels was flushed with a collagen-Matrigel mix. Neurospheres ˜300 to 400 μm in diameter were manually selected, resuspended with the same collagen-Matrigel mixture as above, and individually pipetted into the leftmost channel (FIG. 9d and FIG. 8) before the devices were placed in the incubator for matrix gelation, after which medium was supplied to both open reservoirs. The diameter of the neurospheres being greater than the inter-post distance ensured their restriction to the assign channel, resulting in a physical separation of ˜1 mm between the neurons and the muscles.
The first muscle contraction, indicative of the presence of functional NMJs, was recorded 80 s after glutamate administration and the twitching frequency rose during the subsequent 120 s to reach a steady value of ˜1.25 Hz (FIG. 10a). The delay in contraction and increase of the twitching frequency is likely due to the diffusion of the glutamate to the motor neurons embedded in the ECM since this lag is absent in adherent 2D cultures (T. Wada, M. Honda, I. Minami, N. Tooi, Y. Amagai, N. Nakatsuji, K. Aiba, PLoS One 2009, 4, DOI 10.1371/journal.pone.0006722) or three-dimensional constructs in suspension (Y. Morimoto, M. Kato-Negishi, H. Onoe, S. Takeuchi, Biomaterials 2013, 34, 9413).
All three-dimensional cell cultures in the microfluidic devices were carried out in a collagen:Matrigel hydrogel in a 4:1 ratio. Rat tail type I collagen (Corning) was mixed on ice with 10×PBS with phenol red (serving as pH indicator), 0.5 N NaOH and water for cell culture in order to yield a collagen concentration of 2 mg·ml^−1 at a pH of 7.4. Matrigel without growth factors (BD science) was thoroughly mixed to the collagen at 20% of the final gel mixture volume. The gel was then used within a few minutes following its preparation in order to avoid pre-polymerization.
C2C12 were trypsinized, counted and centrifuged for 5 min at 200 rcf. […]

[2] = system: NMJs between ChR2^H134R-HBG3-MN and C2C12-derived myotubes
[3] = system: NMJs between ChR2^H134R-HBG3-MN neurospheres and C2C12-derived muscle bundle

Compound | steady muscle twitching frequency ([1]; 400 μM in medium) [Hz] | time to first muscle contraction after administration ([1]; 400 μM in medium, leftmost channel) [s] | time over which twitching frequency rose to steady value ([1]; 400 μM, after first contraction) [s] | contractility of the myocytes after application (spontaneous twitches) [2] | effect on light-induced muscle contraction [2] | myocytes showing inhibition of light-induced muscle contraction [2] | effect on light-driven muscle contraction (force F) [3]
N[C@@H](CCC(=O)O)C(=O)O [Glutamate] | ~1.25 | 80 | 120 | – | – | – | –
α-bungarotoxin | – | – | – | still contractile; also recorded: did not alter the contractility of the myocytes | inhibited | 17/17 | inhibited the contractions; also recorded: inhibited muscle contraction
